# Test results reported in patent US20080227638A1, “Use of abscisic acid to enhance growth control” (priority 2007, published 2008).
# Experiments:
# Format in all cases: in vivo
# [1] = test system: tomato (variety: Rutgers); assay: Tomato leaf transpiration, porometer (Example 9)
# Text: (§1) Tomato (variety: Rutgers) seeds were sown in 18-cell flat filled with Promix PGX (available from Premier Horticulture Inc. Quakertown, Pa.) and grown for 3 weeks to allow for germination and initial growth. Plants were then transplanted into pots (18 cm in diameter and 18 cm in height), filled with Promix BX (available from Premier Horticulture Inc. Quakertown, Pa.), and grown for one week before the chemical treatment. Plants received daily irrigation and weekly fertilizer (1 g/L all purpose fertilizer 20-20-20, available from The Scotts Company, Marysville, Ohio).
# (§2) During the chemical treatment, a 15 mL (2.5 mL/plant) solution was foliar sprayed on the tomato canopy. Leaf transpiration rates were measured using a LI-1600 Steady State Porometer (LI-Cor, Lincoln, Nebr.) at 1, 2, 3, 4, 7, 10 and 15 days after treatment. Leaf transpiration rate was normalized to the percentage of control plant to minimize the experimental errors caused by environmental factors. Plant height was measured at 0, 2, 4, 7, 10 and 15 days after treatment. Growth rate was calculated based on the changes of plant height in certain intervals. The plants were harvested and the leaf number was counted at 15 days after treatment.
# [2] = test system: creeping bentgrass; assay: Golf course green creeping bentgrass height, ABA and trinexapac-ethyl (Example 4)
# Method: (§3) Field studies were conducted at the nursery green or the practice green at Countryside golf course (Mundelein, Ill.). Both greens were sand based and growing Penncross creeping bentgrass. Grass was managed with typical Illinois golf course management practices.
# (§4) Chemical solutions were prepared with distilled water. Tween 20 (0.05% v/v) was used as an, adjuvant. Both trinexapac-ethyl (commercial product Primo Maxx, 11.3% active ingredient) and paclobutrazol (commercial product Trimmit 2SC, 22.3% active ingredient) were purchased from Syngenta Crop Protection Inc. (Greensboro, N.C.). Uniconazole-P (commercial product Sumagic, 0.55% active ingredient) was obtained from Valent U.S.A. Corporation (Walnut Creek, Calif.).
# (§5) When treated with paclobutrazol or uniconazole-P, turfgrass received irrigation within 24 hours after application to flush chemicals to the root zone. After treatment, turfgrasses were arranged in a randomized complete block experimental design. Turfgrass quality, turfgrass height or clip fresh weight was measured on assigned dates. Turfgrass quality was visually rated on a 0-9 scale based on the color, uniformity and density of the grass with 0 as the worst and 9 as the best. Turfgrass height was measured as the distance between canopy surface and soil. Clips were collected from each plot; all plots were cut to a uniform height.
# (§6) All experiments were randomized complete block experimental design. Data were analyzed by analysis of variance. Duncan's new multiple range tests at α=0.05 were used for mean separations.
# (§7) Tween 20 (0.05% w/v) was included as an adjuvant.
# [3] = test system: tomato (variety: Rutgers); assay: Tomato plant height, growth rate and leaf number (Example 9); conditions: for Leaf number: 15 days after treatment
# Text: as §1, §2
# [4] = test system: Kentucky bluegrass; assay: Greenhouse Kentucky bluegrass height and quality, ABA and trinexapac-ethyl (Example 1); conditions: for Quality: visual 0-9 scale
# Method: Greenhouse studies were conducted at the Research Farm of Valent BioSciences Corporation (Long Grove, Ill.). Grasses were grown in pots (18 cm in diameter and 18 cm in height) filled with Promix BX (available from Premier Horticulture Inc. Quakertown, Pa.). Grass was irrigated daily by an overhead irrigation system. The irrigation system was set up with multiple Tornado Mist Spray Heads (10 GPH at 40 PSI-Wetted diameter, NDS/Raindrip, Woodland Hills, Calif.). Spray heads were 1-meter apart from each other and 75 cm above grass canopy. Grass was cut with a scissor at 2.5 cm height and fertilizer (1 g/L all purpose fertilizer 20-20-20, available from The Scotts Company, Marysville, Ohio) was applied once per week.
# as §4, §5, §6
# Kentucky bluegrass sod (unknown variety) was purchased from Deak sod farms, Inc. (Union Grove, Wis.). Grass was grown in the greenhouse in pots (n=6 pots per treatment) for establishment before treatment. […] Tween 20 (0.05% w/v) was included as an adjuvant. Turfgrass canopy was not cut during the experimental period.
# [5] = test system: creeping bentgrass green; assay: Soil moisture of creeping bentgrass green, ABA and trinexapac-ethyl (Example 8); conditions: 25 ppm trinexapac-ethyl
# Method: as §3, §4, §5, §6, §7
# [6] = 250 ppm trinexapac-ethyl, day 2 after treatment
# [7] = 250 ppm trinexapac-ethyl, day 4 after treatment
# [8] = 250 ppm trinexapac-ethyl, day 7 after treatment
# [9] = 250 ppm trinexapac-ethyl, day 10 after treatment
# [10] = 250 ppm trinexapac-ethyl, day 15 after treatment
# [11] = 500 ppm trinexapac-ethyl, day 2 after treatment
# [12] = 500 ppm trinexapac-ethyl, day 4 after treatment
# [13] = 500 ppm trinexapac-ethyl, day 7 after treatment
# [14] = 500 ppm trinexapac-ethyl, day 10 after treatment
# [15] = 500 ppm trinexapac-ethyl, day 15 after treatment
# [16] = 1000 ppm trinexapac-ethyl, day 2 after treatment
# [17] = 1000 ppm trinexapac-ethyl, day 4 after treatment
# [18] = 1000 ppm trinexapac-ethyl, day 7 after treatment
# [19] = 1000 ppm trinexapac-ethyl, day 10 after treatment
# [20] = 1000 ppm trinexapac-ethyl, day 15 after treatment
# [21] = 2000 ppm trinexapac-ethyl, day 2 after treatment
# [22] = 2000 ppm trinexapac-ethyl, day 4 after treatment
# [23] = 2000 ppm trinexapac-ethyl, day 7 after treatment
# [24] = 2000 ppm trinexapac-ethyl, day 10 after treatment
# [25] = 2000 ppm trinexapac-ethyl, day 15 after treatment
# [26] = 40 ppm trinexapac-ethyl, 23 days after treatment
# [27] = 80 ppm trinexapac-ethyl, 23 days after treatment
# [28] = 160 ppm trinexapac-ethyl, 23 days after treatment
structure (smiles),measurement,setting,value
CCOC(=O)C1CC(=O)C(=C(O)C2CC2)C(=O)C1 (stereo not shown) [trinexapac-ethyl],Transpiration,"[1]; 250 ppm trinexapac-ethyl, day 1 after treatment",91 % of control
same,Transpiration,[1]; [6],99 % of control
same,Transpiration,"[1]; 250 ppm trinexapac-ethyl, day 3 after treatment",91 % of control
same,Transpiration,[1]; [7],95 % of control
same,Transpiration,[1]; [8],100 % of control
same,Transpiration,[1]; [9],98 % of control
same,Transpiration,[1]; [10],98 % of control
same,Transpiration,"[1]; 500 ppm trinexapac-ethyl, day 1 after treatment",91 % of control
same,Transpiration,[1]; [11],95 % of control
same,Transpiration,"[1]; 500 ppm trinexapac-ethyl, day 3 after treatment",89 % of control
same,Transpiration,[1]; [12],96 % of control
same,Transpiration,[1]; [13],100 % of control
same,Transpiration,[1]; [14],99 % of control
same,Transpiration,[1]; [15],100 % of control
same,Transpiration,"[1]; 1000 ppm trinexapac-ethyl, day 1 after treatment",92 % of control
same,Transpiration,[1]; [16],96 % of control
same,Transpiration,"[1]; 1000 ppm trinexapac-ethyl, day 3 after treatment",91 % of control
same,Transpiration,[1]; [17],98 % of control
same,Transpiration,[1]; [18],100 % of control
same,Transpiration,[1]; [19],103 % of control
same,Transpiration,[1]; [20],99 % of control
same,Transpiration,"[1]; 2000 ppm trinexapac-ethyl, day 1 after treatment",95 % of control
same,Transpiration,[1]; [21],94 % of control
same,Transpiration,"[1]; 2000 ppm trinexapac-ethyl, day 3 after treatment",90 % of control
same,Transpiration,[1]; [22],98 % of control
same,Transpiration,[1]; [23],97 % of control
same,Transpiration,[1]; [24],99 % of control
same,Transpiration,[1]; [25],98 % of control
same,Turfgrass height,"[2]; 12.5 ppm trinexapac-ethyl, 7 days after treatment",6.0 cm
same,Turfgrass height,"[2]; 12.5 ppm trinexapac-ethyl, 14 days after treatment",8.5 cm
same,Turfgrass height,"[2]; 50 ppm trinexapac-ethyl, 7 days after treatment",4.3 cm
same,Turfgrass height,"[2]; 50 ppm trinexapac-ethyl, 14 days after treatment",5.5 cm
same,Leaf number,[3]; 250 ppm trinexapac-ethyl,12.0
same,Plant height,"[3]; 250 ppm trinexapac-ethyl, day 0 after treatment",10.3 cm
same,Growth rate,[3]; [6],1.7 cm/day
same,Plant height,[3]; [6],13.6 cm
same,Growth rate,[3]; [7],1.5 cm/day
same,Plant height,[3]; [7],16.4 cm
same,Growth rate,[3]; [8],2.6 cm/day
same,Plant height,[3]; [8],28.7 cm
same,Growth rate,[3]; [9],2.2 cm/day
same,Plant height,[3]; [9],32.3 cm
same,Growth rate,[3]; [10],2.7 cm/day
same,Plant height,[3]; [10],50.6 cm
same,Leaf number,[3]; 500 ppm trinexapac-ethyl,11.7
same,Plant height,"[3]; 500 ppm trinexapac-ethyl, day 0 after treatment",9.8 cm
same,Growth rate,[3]; [11],1.7 cm/day
same,Plant height,[3]; [11],13.1 cm
same,Growth rate,[3]; [12],1.5 cm/day
same,Plant height,[3]; [12],15.9 cm
same,Growth rate,[3]; [13],2.6 cm/day
same,Plant height,[3]; [13],28.3 cm
same,Growth rate,[3]; [14],2.2 cm/day
same,Plant height,[3]; [14],31.2 cm
same,Growth rate,[3]; [15],2.6 cm/day
same,Plant height,[3]; [15],50.7 cm
same,Leaf number,[3]; 1000 ppm trinexapac-ethyl,11.7
same,Plant height,"[3]; 1000 ppm trinexapac-ethyl, day 0 after treatment",10.0 cm
same,Growth rate,[3]; [16],1.2 cm/day
same,Plant height,[3]; [16],12.3 cm
same,Growth rate,[3]; [17],1.4 cm/day
same,Plant height,[3]; [17],15.4 cm
same,Growth rate,[3]; [18],2.4 cm/day
same,Plant height,[3]; [18],26.7 cm
same,Growth rate,[3]; [19],2.1 cm/day
same,Plant height,[3]; [19],31.3 cm
same,Growth rate,[3]; [20],2.8 cm/day
same,Plant height,[3]; [20],52.7 cm
same,Leaf number,[3]; 2000 ppm trinexapac-ethyl,11.5
same,Plant height,"[3]; 2000 ppm trinexapac-ethyl, day 0 after treatment",9.9 cm
same,Growth rate,[3]; [21],1.2 cm/day
same,Plant height,[3]; [21],12.2 cm
same,Growth rate,[3]; [22],1.5 cm/day
same,Plant height,[3]; [22],15.8 cm
same,Growth rate,[3]; [23],2.0 cm/day
same,Plant height,[3]; [23],23.9 cm
same,Growth rate,[3]; [24],2.0 cm/day
same,Plant height,[3]; [24],29.3 cm
same,Growth rate,[3]; [25],2.7 cm/day
same,Plant height,[3]; [25],50.6 cm
same,Turfgrass height,"[4]; 40 ppm trinexapac-ethyl, 7 days after treatment",9.5 cm
same,Turfgrass height,[4]; [26],18.0 cm
same,Quality,[4]; [26],7.8
same,Turfgrass height,"[4]; 80 ppm trinexapac-ethyl, 7 days after treatment",7.4 cm
same,Turfgrass height,[4]; [27],17.3 cm
same,Quality,[4]; [27],8.0
same,Turfgrass height,"[4]; 160 ppm trinexapac-ethyl, 7 days after treatment",6.1 cm
same,Turfgrass height,[4]; [28],13.3 cm
same,Quality,[4]; [28],7.0
same,Soil moisture,[5]; 2 days after treatment,11.2%
same,Soil moisture,[5]; 7 days after treatment,12.7%
